Molecules are shown by their SMILES.

The subject of this assay is MT4. Put plainly: Tested for inhibitory activity against HIV in whole cell assay (MT-4, RF strain of HIV-1) at a 100 ug/ ml); Inactive and Not toxic. Conditions: Homo sapiens. The assay is classed as functional, cell-based.
For `O=c1ccn(N2CCC(CO)C2)c(=O)[nH]1` (stereo not drawn), the Activity entry is “Non-toxic”.

For the compound `Cc1cn(N2CCC(CO)C2)c(=O)[nH]c1=O` (stereo not drawn), the Activity entry was “Non-toxic”. Next, `Nc1ccn(N2CCC(CO)C2)c(=O)n1` (stereo not drawn): “Non-toxic”.

The values are drawn from ChEMBL document CHEMBL1125974, “Synthesis of (+/)1-Aza-carbocyclic-pyrimidine-2,3-dideoxynucleoside analogues as potential anti-HIV agents” (Bioorg Med Chem Lett, 1991).
